Data from patent EP2272817A1, “PAI-1 INHIBITOR” (Institute of Medicinal Molecular Design, Inc., priority 2008, dated 2009).

Target: recombinant human PAI-1 (Homo sapiens, UniProt P05121)
Test: biochemical
Settings: read-out: Inhibition Rate of PAI-1 Activity (%)
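Further: PAI-1 preincubated with compound, then two-chain tPA added, residual tPA activity read with fluorogenic Pyr-Gly-Arg-MCA substrate after 30 min at room temperature.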

Sequence of recombinant human PAI-1 (P05121 24-402): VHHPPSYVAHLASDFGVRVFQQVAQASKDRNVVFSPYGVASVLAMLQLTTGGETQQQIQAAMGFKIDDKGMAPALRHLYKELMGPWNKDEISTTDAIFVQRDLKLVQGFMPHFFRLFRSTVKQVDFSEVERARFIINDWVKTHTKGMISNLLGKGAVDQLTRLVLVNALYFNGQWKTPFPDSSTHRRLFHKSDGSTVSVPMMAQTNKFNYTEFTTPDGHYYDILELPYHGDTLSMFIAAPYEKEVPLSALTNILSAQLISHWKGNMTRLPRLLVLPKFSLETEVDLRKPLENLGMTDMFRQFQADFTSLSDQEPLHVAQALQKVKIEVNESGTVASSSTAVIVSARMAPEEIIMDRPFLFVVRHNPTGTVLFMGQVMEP

Compound	inhibition at 5 µM [%]	inhibition at 10 µM [%]	inhibition at 25 µM [%]
CC(C)(C)c1ccc(Oc2cc(Oc3ccc(OC(F)(F)F)cc3)ccc2/C=C/C(=O)O)cc1 [Compound 89]	46	87	95
CC(C)(C)c1ccc(COc2c(Cl)cc(-c3ccc(OC(F)(F)F)cc3)cc2/C=C/C(=O)O)cc1 [Compound 91]	30	67	96
CC(C)(C)c1ccc(COc2c(Cl)cc(-c3ccc(OC(F)(F)F)cc3)cc2CCC(=O)O)cc1 [Compound 92]	25	63	97
CC(C)(C)c1ccc(Oc2cccc(-c3ccc(OC(F)(F)F)cc3)c2/C=C/C(=O)O)cc1 [Compound 93]	51	87	94
CC(C)(C)c1ccc(COc2ccc(Oc3ccc(OC(F)(F)F)cc3)cc2/C=C/C(=O)O)cc1 [Compound 95]	28	77	96
O=C(O)/C=C/c1c(Oc2ccc(OC(F)(F)F)cc2)cccc1Oc1ccc(OC(F)(F)F)cc1 [Compound 97]	30	40	53
CC(C)(C)c1ccc(Oc2ccc(Oc3ccc(OC(F)(F)F)cc3)cc2/C=C/C(=O)O)cc1 [Compound 99]	31	66	99
O=C(O)CCc1cc(-c2ccc(OC(F)(F)F)cc2)ccc1OCCCc1ccccc1 [Compound 101]	42	73	> 99
O=C(O)CCc1cc(-c2ccc(OC(F)(F)F)cc2)ccc1OCCCOc1ccccc1 [Compound 103]	33	57	89
O=C(O)CCc1cc(-c2ccc(OC(F)(F)F)cc2)ccc1OCCCCCc1ccccc1 [Compound 104]	47	77	96
CC(C)(C)c1ccc(COc2ccc(-c3ccc(OC(F)(F)F)cc3)cc2COCC(=O)O)cc1 [Compound 107]	48	85	97
CC(OCC(=O)O)c1cc(-c2ccc(OC(F)(F)F)cc2)ccc1OCc1ccc(C(C)(C)C)cc1 (stereo not drawn) [Compound 108]	52	86	95
CC(C)(C)c1ccc(COc2ccc(-c3ccc(OC(F)(F)F)cc3)cc2OCCCC(=O)O)cc1 [Compound 109]	24	50	96
CC(C)(Oc1ccc(-c2ccc(OC(F)(F)F)cc2)cc1Oc1ccc(C(C)(C)C)cc1)C(=O)O [Compound 110]	37	51	83
CC(C)(OCc1ccc(-c2ccc(OC(F)(F)F)cc2)cc1Oc1ccc(C(C)(C)C)cc1)C(=O)O [Compound 111]	55	88	94
CCC(Oc1ccc(-c2ccc(OC(F)(F)F)cc2)cc1Oc1ccc(C(C)(C)C)cc1)C(=O)O (stereo not drawn) [Compound 114]	64	87	95
O=C(O)COc1cc(-c2ccc(OC(F)(F)F)cc2)ccc1OCCCCc1ccccc1 [Compound 115]	34	59	90
CC(C)(C)c1ccc(Oc2cc(-c3ccc(OC(F)(F)F)cc3)ccc2OC(F)C(=O)O)cc1 (stereo not drawn) [Compound 119]	75	93	99
CC(C)(C)c1ccc(Oc2cc(-c3ccc(OC(F)(F)F)cc3)ccc2OC(F)(F)C(=O)O)cc1 [Compound 120]	59	87	98
CC(C)(C)c1ccc(COc2ccc(-c3ccc(OC(F)(F)F)cc3)cc2OCc2nn[nH]n2)cc1 [Compound 122]	29	63	99
